Test systems include SK-MEL-28; A549; UO-31; UACC-257; U-251; COLO 205; HOP-92; NCI-H23; 786-0; NCI-H226; SN12C; MOLT-4; NCI-H522; SK-MEL-5; HOP-62; SF-539; SNB-75; RXF 393.
Common to all, as to assay: NCI tumour cell line growth inhibition, 48 h

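Briefly, cells in 96-well plates were exposed to five compound concentrations for 48 h, and endpoints were estimated by linear interpolation. GI50 = concentration required for 50% inhibition of growth.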 The source made the active and inactive calls. Rule as the data show it: active = GI50 up to about 1.1 µM and inactive = higher. A value given as a limit tells only on which side of the number the result lay.

As for `O=C(N/N=C(/c1nc2ccc([N+](=O)[O-])cc2[nH]c1=O)C(O)c1ccc([N+](=O)[O-])cc1)c1ccncc1` (stereo unspecified), the GI50 with SK-MEL-28 was > 100 µM (inactive); with A549, 69 µM (inactive); in the test on UO-31, > 100 µM (inactive); in the test on UACC-257 it was > 100 µM (inactive); in the test on U-251, > 100 µM (inactive); in the test with COLO 205 it was > 100 µM (inactive). In addition, the GI50 in the test on HOP-92, with NCI-H23, with 786-0, with NCI-H226, in the test on SN12C and in the test on MOLT-4 was > 100 µM (inactive) in each case. Moreover, the GI50 with NCI-H522 is 6.64 µM (inactive); in the test with SK-MEL-5, 36.3 µM (inactive); with HOP-62, 69.7 µM (inactive); with SF-539, 75.5 µM (inactive); in the test with SNB-75, > 100 µM (inactive).

For `N=C1SCCS1`, the GI50 in the test with SK-MEL-28, in the test on A549, in the test with UO-31, with UACC-257, in the test on U-251 and in the test on COLO 205 was > 100 µM (inactive) in each case. Moreover, the GI50 in the test with HOP-92 is 59 µM (inactive); in the test with NCI-H23, > 100 µM (inactive); in the test with 786-0 it was > 100 µM (inactive); in the test on NCI-H226, > 100 µM (inactive); in the test with SN12C, > 100 µM (inactive); in the test on MOLT-4, > 100 µM (inactive). Moreover, the GI50 in the test on NCI-H522 was > 100 µM (inactive); with SK-MEL-5, > 100 µM (inactive); in the test with HOP-62, > 100 µM (inactive); with SF-539 it was > 100 µM (inactive); with SNB-75 it was 36.2 µM (inactive).

For `CO[C@@H]1C=C[C@@]23c4cc5c(cc4C(=O)O[C@H]2CN(C)[C@H]3C1)OCO5`, the GI50 with SK-MEL-28, with A549, in the test with UO-31, in the test with UACC-257, with U-251 and in the test on COLO 205 was > 100 µM (inactive) throughout. The GI50 in the test with HOP-92, with RXF 393, in the test on NCI-H23, in the test on 786-0, in the test with SN12C and with MOLT-4 was > 100 µM (inactive) each time. The GI50 in the test on NCI-H522 is > 100 µM (inactive); in the test on SK-MEL-5 it was > 100 µM (inactive); in the test with SF-539, > 100 µM (inactive); in the test on SNB-75 it was 81.7 µM (inactive).

With `O=C1/C(=C\c2ccccc2)c2ccccc2N1/N=C\c1ccccc1`, the GI50 in the test with SK-MEL-28 is > 100 µM (inactive); in the test on A549, 76.2 µM (inactive); in the test on UO-31 it was > 100 µM (inactive); with UACC-257, > 100 µM (inactive); in the test with U-251, > 100 µM (inactive); in the test with COLO 205 it was > 100 µM (inactive). Also, the GI50 in the test on HOP-92 was > 100 µM (inactive); in the test with NCI-H23, > 100 µM (inactive); with 786-0 it was 81.5 µM (inactive); in the test on NCI-H226, > 100 µM (inactive); with SN12C, > 100 µM (inactive); in the test on MOLT-4 it was 22.5 µM (inactive). Moreover, the GI50 in the test with SK-MEL-5 was 48.4 µM (inactive); in the test with HOP-62, > 100 µM (inactive); in the test with SF-539, > 100 µM (inactive); in the test on SNB-75 it was 29 µM (inactive).

`C[N+](C)(C)CC(=O)N/N=C(/Cc1nc2ccc(Cl)cc2nc1O)C1=NS(=O)(=O)c2cc(S(N)(=O)=O)c(Cl)cc2N1`: the GI50 in the test with SK-MEL-28, in the test with A549, in the test on UO-31, in the test on UACC-257, in the test with COLO 205 and in the test with RXF 393 was > 100 µM (inactive) in each case. Besides, the GI50 in the test with NCI-H23, with 786-0, with SN12C, in the test on MOLT-4, in the test on NCI-H522 and with SK-MEL-5 was > 100 µM (inactive) each time. Further, the GI50 in the test with HOP-62 and in the test with SF-539 was > 100 µM (inactive) in each case.

For `[O-][n+]1c2cc(CBr)c(CBr)cc2[n+]([O-])c2c(O)cccc21`, the GI50 is 1.76 µM (inactive) in the test with SK-MEL-28; 3.1 µM (inactive) in the test with A549; 1.93 µM (inactive) in the test on UO-31; 2.38 µM (inactive) in the test with UACC-257; 2.9 µM (inactive) with U-251; 1.77 µM (inactive) with COLO 205. Further, the GI50 in the test with HOP-92 was 1.05 µM (active); in the test with RXF 393, 1.76 µM (inactive); with NCI-H23, 2.72 µM (inactive); in the test on 786-0, 1.58 µM (inactive); in the test with NCI-H226, 6.61 µM (inactive); with SN12C, 1.73 µM (inactive). For the same molecule, the GI50 in the test on MOLT-4 was 0.344 µM (active); with NCI-H522, 0.538 µM (active); in the test with SK-MEL-5, 2.1 µM (inactive); with HOP-62, 20.1 µM (inactive); in the test with SNB-75 it was 2.11 µM (inactive).

`CC1=CCN(c2ccccn2)OC1c1ccccc1` (stereo unspecified): the GI50 is > 100 µM (inactive) in the test on SK-MEL-28; > 100 µM (inactive) in the test with A549; 59.8 µM (inactive) in the test on UO-31; > 100 µM (inactive) in the test with UACC-257; > 100 µM (inactive) with U-251; > 100 µM (inactive) with COLO 205. The GI50 with RXF 393 is 62.8 µM (inactive); in the test with NCI-H23 it was > 100 µM (inactive); with 786-0, > 100 µM (inactive); in the test with NCI-H226, > 100 µM (inactive); with SN12C, > 100 µM (inactive); with MOLT-4, > 100 µM (inactive). Besides, the GI50 is 54.6 µM (inactive) in the test with NCI-H522, > 100 µM (inactive) with HOP-62, > 100 µM (inactive) with SF-539 and > 100 µM (inactive) in the test on SNB-75.

On to `O=C1N=C2Sc3ccc4ccccc4c3N2C1=O`, for which the GI50 was 27 µM (inactive) with SK-MEL-28; 19.6 µM (inactive) in the test on A549; 16 µM (inactive) in the test on UO-31; 28.1 µM (inactive) in the test with UACC-257; 20.5 µM (inactive) with U-251; 29.6 µM (inactive) in the test with COLO 205. In addition, the GI50 in the test on HOP-92 was 15 µM (inactive); in the test with RXF 393 it was 20.2 µM (inactive); with NCI-H23, 22.5 µM (inactive); with 786-0, 19.8 µM (inactive); with NCI-H226 it was 22.1 µM (inactive); with SN12C, 20.3 µM (inactive). Further, the GI50 was 44.4 µM (inactive) with MOLT-4; 22.4 µM (inactive) with SK-MEL-5; 19.2 µM (inactive) in the test with HOP-62; 18.8 µM (inactive) in the test with SF-539; 23.6 µM (inactive) in the test with SNB-75.

Consider `CC1(C)COC(C23C4C5C2C2C3C4C52I)=N1` (stereo unspecified), for which the GI50 with SK-MEL-28, in the test on A549, in the test on UO-31, in the test on UACC-257, in the test with U-251 and with COLO 205 was > 100 µM (inactive) in each case. In addition, the GI50 with HOP-92, with RXF 393, with NCI-H23, in the test on 786-0, in the test on NCI-H226 and in the test with SN12C was > 100 µM (inactive) in each case. Also, the GI50 in the test with MOLT-4, in the test on SK-MEL-5, in the test with HOP-62 and in the test on SF-539 was > 100 µM (inactive) throughout.

Consider `c1ccc(SC(CCCCC(Sc2ccccc2)Sc2ccccc2)Sc2ccccc2)cc1`, for which the GI50 in the test with SK-MEL-28, in the test with A549, in the test with UO-31, in the test on UACC-257, with U-251 and with COLO 205 was > 100 µM (inactive) each time. The GI50 in the test on HOP-92, in the test on RXF 393, in the test with NCI-H23, in the test with 786-0, with SN12C and in the test with MOLT-4 was > 100 µM (inactive) in each case. In addition, the GI50 in the test with SK-MEL-5, in the test on HOP-62, in the test on SF-539 and in the test on SNB-75 was > 100 µM (inactive) each time.

Turning to `O=c1[nH]nc(-c2ccccc2)c(-c2ccccc2)c1-n1nc(-c2ccccc2)c2ccccc2c1=O`, the GI50 was > 100 µM (inactive) with SK-MEL-28; 83.4 µM (inactive) in the test on A549; 71.8 µM (inactive) in the test on UO-31; > 100 µM (inactive) in the test on UACC-257; 50.8 µM (inactive) in the test on U-251; 34.6 µM (inactive) in the test with COLO 205. Also, the GI50 was 75.5 µM (inactive) in the test with HOP-92; > 100 µM (inactive) in the test on NCI-H23; > 100 µM (inactive) in the test with 786-0; > 100 µM (inactive) in the test on NCI-H226; > 100 µM (inactive) in the test with SN12C; 17 µM (inactive) in the test on MOLT-4. In addition, the GI50 with NCI-H522 is 34 µM (inactive); in the test with SK-MEL-5, > 100 µM (inactive); in the test on HOP-62, > 100 µM (inactive); in the test with SF-539, > 100 µM (inactive); with SNB-75 it was > 100 µM (inactive).

Turning to `CC1/C=C/[C@@]2(C)CCC(C(C)(C)O)C2C(O)C[C@](C)(O)/C=C/C1` (stereo partly specified), the GI50 in the test with SK-MEL-28, in the test with A549, in the test on UO-31, in the test on UACC-257, in the test on U-251 and in the test on COLO 205 was > 100 µM (inactive) in each case. The GI50 with HOP-92 was > 100 µM (inactive); with RXF 393, > 100 µM (inactive); with NCI-H23, > 100 µM (inactive); in the test with 786-0 it was 21.7 µM (inactive); with NCI-H226, 7.31 µM (inactive); with SN12C it was > 100 µM (inactive). For the same molecule, the GI50 with MOLT-4, in the test with SK-MEL-5, in the test on HOP-62, in the test with SF-539 and in the test on SNB-75 was > 100 µM (inactive) each time.
